In article PMC10063562, “Metabolic profiling, antioxidant, and enzyme inhibition potential of Iris pseudacorus L. from Egypt and Japan: A comparative study” (Scientific Reports, 2023):
pIC50: −log10 of the molar value. Where two headings read alike, the source gives them in different places.

Columns and labels:
[1] = molecular target: α-glucosidase; settings: cited from earlier work
[2] = tested on: protein glycation; parameters: method as in PMID 23270944; settings: at concentration of 3 µg/mL; ref [83]; cited from earlier work
[3] = molecular target: T1, pancreatic lipase (Sus scrofa, UniProt P00591); assay: pancreatic lipase enzyme inhibition assay (4MUFO substrate); assay type: biochemical, porcine; settings: mean ± SD, n=3
T1 construct: purchased Sigma Aldrich, Japan
T1 sequence (P00591 1-450): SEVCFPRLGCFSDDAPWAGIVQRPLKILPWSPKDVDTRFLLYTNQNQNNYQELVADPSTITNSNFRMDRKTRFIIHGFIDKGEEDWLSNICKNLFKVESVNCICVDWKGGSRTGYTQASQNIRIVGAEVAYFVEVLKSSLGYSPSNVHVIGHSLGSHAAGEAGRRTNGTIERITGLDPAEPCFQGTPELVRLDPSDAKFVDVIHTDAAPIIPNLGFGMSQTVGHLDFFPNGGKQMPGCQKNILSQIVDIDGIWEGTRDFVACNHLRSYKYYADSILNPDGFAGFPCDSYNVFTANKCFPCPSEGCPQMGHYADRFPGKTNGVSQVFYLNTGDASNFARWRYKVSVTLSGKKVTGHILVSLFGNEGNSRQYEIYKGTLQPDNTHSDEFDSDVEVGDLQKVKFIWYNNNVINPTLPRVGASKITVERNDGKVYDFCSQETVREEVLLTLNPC
Text: 2, 2-Diphenyl-1-picrylhydrazyl (DPPH), pancreatic lipase enzyme from porcine animal, tyrosinase enzyme from mushroom plant and α-glucosidase enzyme from Saccharomyces cerevisiae fungi were purchased from the Sigma Aldrich, Japan. Arbutin and aluminum chloride (III) were obtained from Nacalai Tesque, Japan. Cetilistat was purchased from Combi-Blocks, United States of America. Acarbose and Trolox were obtained from Wako Pure Chemical Industries, Japan. Methanol was purchased from Al-Nasr Pharmaceutical Company, Egypt.
The anti-hyperlipidemic potential of yellow flag extracts was conducted by Bitou et al. method with minor alterations. In an ELISA microplate reader, pancreatic lipase solution (50 μL at pH 7.4) in phosphate buffer (100 μg/mL, 0.2 M) was added together with 50 μL of I. pseudacorus extract at a concentration ranging from 1.56 to 100 μg/mL. After 10 min of incubation at 25 °C. […] The quantity of 4-methylumbelliferone liberated by the lipase enzyme was measured fluorometrically using a spectrophotometer at 355 nm excitation wavelength and 460 nm emission wavelength. […] The percentage of lipase inhibition was calculated using the following equation: [1- As/Ac ]*100], where As and Ac symbolize I. pseudacorus extract and […] absorbances. […]
DPPH and enzyme inhibitory assays were carried out in triplicates, and the values were expressed as mean ± standard deviation. […]

[4] = parameters: method as in PMID 26799817; settings: compared to trolox; ref [80]; cited from earlier work
[5] = cited from earlier work; for antioxidant activity IC50: compared to propyl gallate, ref [78]; for free radical scavenging activity IC50: compared to trolox, ref [79]
[6] = tested on: rats; settings: pre-administration in rats (5 and 10 mg/kg); ref [91]; cited from earlier work
[7] = tested on: Chinese hamster lung fibroblast (V79-4) cells; parameters: method as in PMID 16102749; settings: V79-4 cells exposed to hydrogen peroxide; ref [77]; cited from earlier work
[8] = DPPH radical scavenging assay; settings: mean ± SD, n=3
Protocol: The antioxidant activity of the yellow flag extracts was determined using DPPH scavenging assay in accordance with Shimamura et al. with minimal adjustments. The reaction mixture in 96 well culture plate contained. […] After 20 min of incubation of the reaction mixture at 25 °C. The degree of bleaching of the violet tint of DPPH depends on the ability of I. pseudacorus extracts for hydrogen/electron donation and was measured spectrophotometrically at 520 nm of wavelength. Noteworthy, trolox (an artificial anti-oxidant agent) was used as a positive control. The percentage of antioxidant capacity of the yellow flag extracts equals to [ Ac-As/Ac ] *100 Where Ac, As represents the control absorbance and the I. pseudacorus extract absorbance, respectively. The graph was plotted and the inhibitory concentration 50 (IC50) value was calculated. DPPH and enzyme inhibitory assays were carried out in triplicates, and the values were expressed as mean ± standard deviation. For the determination of the in vitro antioxidant, tyrosinase, lipase, and α-glucosidase inhibition potential, the (IC50) was estimated from the graph plots of the dose–response curves at each sample concentration by GraphPad Prism software (San Diego, CA, USA). The IC50 was defined as the concentration of the sample required to inhibit 50% of the tested enzyme activity.

[9] = molecular target: pancreatic lipase; settings: cited from earlier work
[10] = compared with acarbose, ref [6]

Compound: COc1ccccc1-c1coc2cc(O)c(OC)c(O)c2c1=O [5,7-Dihydroxy-2',6-dimethoxyisoflavone]
- α-glucosidase IC50 ([1]; compared to acarbose, ref [83]): 0.321 ± 0.008 µg/mL
- protein glycation % inhibition [2]: 70.41%

Compound: CCCCCCCCCCCCCCCCOc1nc2ccc(C)cc2c(=O)o1 [Cetilistat]
- pIC50 [3]: 4.73

Compound: O=c1c(-c2ccc(O)cc2)coc2cc(O)cc(O)c12 [Genistein (30), Genistein]
- DPPH IC50 [4]: 1.89 ± 0.16 µg/mL
- α-glucosidase IC50 ([1]; compared with acarbose, ref [85]): 40.09 ± 0.94 µg/mL

Compound: COc1ccc(-c2coc3cc(O)c(OC)c(O)c3c2=O)cc1 [Irisolidone (34), Irisolidone]
- antioxidant activity IC50 [5]: 12.62 µg/mL

Compound: O=c1cc(-c2ccc(O)cc2)oc2cc(O)c([C@@H]3O[C@H](CO)[C@@H](O)[C@H](O)[C@H]3O)c(O)c12 [Isovitexin (43), Isovitexin]
- α-glucosidase IC50 [1, 10]: 6.7 µg/mL

Compound: O=c1c(O)c(-c2ccc(O)c(O)c2)oc2cc(O)cc(O)c12 [Quercetin (38), Quercetin]
- rat fat absorption [6]: remarkable decrease in rat fat absorption

Compound: COc1c(O)cc2occ(-c3ccc(O)cc3)c(=O)c2c1O [Tectorigenin (31), Tectorigenin]
- intracellular free radical scavenging and lipid peroxidation [7]: scavenged intracellular free radicals and reduced lipid peroxidation

Compound: Cc1c(C)c2c(c(C)c1O)CCC(C)(C(=O)O)O2 (stereo not drawn) [Trolox, reference compound]
- free radical scavenging activity IC50 [5]: 17.3 µg/mL
- DPPH IC50 [8]: 14.59 µg/mL

Compound: O=c1cc(-c2ccc(O)cc2)oc2c([C@@H]3O[C@H](CO)[C@@H](O)[C@H](O)[C@H]3O)c(O)cc(O)c12 [Vitexin (42), Vitexin]
- free radical scavenging activity IC50 [5]: 31.4 µg/mL
- α-glucosidase IC50 [1, 10]: 4.1 µg/mL

Compound: CCCOC(=O)c1cc(O)c(O)c(O)c1 [propyl gallate, reference compound]
- antioxidant activity IC50 [5]: 6.72 µg/mL

Compound: C[C@@H]1O[C@@H](OC[C@H]2O[C@@H](Oc3c(-c4ccc(O)c(O)c4)oc4cc(O)cc(O)c4c3=O)[C@H](O)[C@@H](O)[C@@H]2O)[C@H](O)[C@H](O)[C@H]1O [rutin, reference compound]
- protein glycation % inhibition [2]: 82.50%

Compound: Kaempferol-O-deoxyhexosyl hexoside (Kaempferol-O-rutinoside) [Compound 21]
- pancreatic lipase IC50 ([9]; compared to orlistat, ref [90]): 1.7 ± 0.30 µg/mL

Compound: Schaftoside [Schaftoside (18)]
- pancreatic lipase % inhibition ([9]; at a concentration of 250 μg/mL, ref [88]): 95.5%
- pancreatic lipase IC50 ([9]; compared with orlistat, ref [88]): 130 µg/mL
